Reference: patent publication US9919001B2, “Drug carrier having L-DNA nanocage structure” (Korea Institute of Science and Technology, priority 2013, dated 2018)

Tested on: MCF-7/ADR cells
Test: MTT cell viability assay (small molecule drug delivery)
Format: cell-based
Details: average of triplicate
Method: For DOX intercalation into the Cy5-labeled Td, DOX (1 mM) was mixed with the fluorescent DNA tetrahedron (10 μM) for 1 h and then run through NAP10 (G25-DNA grade column, GE Healthcare, USA) to remove the free DOX remaining in solution. The number of intercalated DOX molecules per DNA tetrahedron was calculated using the extinction coefficient of Cy5 at 633 nm (ϵ=230400) and that of DOX at 480 nm (ϵ=10410), respectively.
Drug-sensitive MCF-7 cells and drug-resistant MCF-7/ADR cells were used for cell viability assays. Cytotoxicity of Td was estimated using an MTT assay. Briefly, 8×10^3 mammalian cells were seeded with media (100 μL) in 96-well plates and cultured overnight to reach ˜80% confluency. The cells were then incubated in the fresh media containing Td at 37° C. for 6 h in the CO2 chamber. […] Then, thiazolyl blue tetrazolium bromide (MTT, TACS, Germany) solution (10 μL) was added to each well, followed by 4 h incubation at 37° C. Next, cells were lysed with 200 μL of dimethyl sulfoxide (DMSO, Sigma-Aldrich, USA). After overnight incubation at room temperature, the absorbance was measured at 580 nm using a microplate reader (SpectraMaxPlus™, Molecular Devices, USA).

COc1cccc2c1C(=O)c1c(O)c3c(c(O)c1C2=O)C[C@@](O)(C(=O)CO)C[C@@H]3O[C@H]1C[C@H](N)[C@H](O)[C@H](C)O1 [Free-DOX, doxorubicin]
Cell viability assay (%) (24 h): 98.9% | Cell viability assay (%) (48 h): 93.6% | Cell viability assay (%) (72 h): 89.2%
